Measured values: publication PMC3711671 (Nature chemical biology, 2012)

Tests used:
[1] = target: recombinant PKM2 monomers and tetramers (Homo sapiens, UniProt P14618); assay type: biochemical; details: 100 µM FBP
[2] = target: PKM2 in A549 cells (Homo sapiens, UniProt P14618); assay: Size exclusion chromatography of cell lysates; assay type: cell-based; details: 100 μM pervanadate for 10 min
Sequence of PKM2 in A549 cells (P14618 2-531 limits assumed): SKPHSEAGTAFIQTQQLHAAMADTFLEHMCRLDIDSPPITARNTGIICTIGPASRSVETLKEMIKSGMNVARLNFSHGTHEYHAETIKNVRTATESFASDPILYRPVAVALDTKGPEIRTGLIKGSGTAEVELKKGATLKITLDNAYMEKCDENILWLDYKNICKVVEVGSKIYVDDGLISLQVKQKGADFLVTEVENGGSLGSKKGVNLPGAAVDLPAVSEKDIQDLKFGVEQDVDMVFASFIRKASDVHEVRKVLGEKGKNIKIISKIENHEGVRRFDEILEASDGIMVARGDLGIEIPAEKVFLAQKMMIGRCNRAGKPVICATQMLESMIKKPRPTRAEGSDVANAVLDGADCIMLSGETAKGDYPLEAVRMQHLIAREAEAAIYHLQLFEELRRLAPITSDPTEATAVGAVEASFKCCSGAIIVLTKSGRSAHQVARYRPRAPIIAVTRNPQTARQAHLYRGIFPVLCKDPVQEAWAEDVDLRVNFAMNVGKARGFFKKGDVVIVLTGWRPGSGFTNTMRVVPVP

Sequence of recombinant PKM2 monomers and tetramers (P14618 whole entry): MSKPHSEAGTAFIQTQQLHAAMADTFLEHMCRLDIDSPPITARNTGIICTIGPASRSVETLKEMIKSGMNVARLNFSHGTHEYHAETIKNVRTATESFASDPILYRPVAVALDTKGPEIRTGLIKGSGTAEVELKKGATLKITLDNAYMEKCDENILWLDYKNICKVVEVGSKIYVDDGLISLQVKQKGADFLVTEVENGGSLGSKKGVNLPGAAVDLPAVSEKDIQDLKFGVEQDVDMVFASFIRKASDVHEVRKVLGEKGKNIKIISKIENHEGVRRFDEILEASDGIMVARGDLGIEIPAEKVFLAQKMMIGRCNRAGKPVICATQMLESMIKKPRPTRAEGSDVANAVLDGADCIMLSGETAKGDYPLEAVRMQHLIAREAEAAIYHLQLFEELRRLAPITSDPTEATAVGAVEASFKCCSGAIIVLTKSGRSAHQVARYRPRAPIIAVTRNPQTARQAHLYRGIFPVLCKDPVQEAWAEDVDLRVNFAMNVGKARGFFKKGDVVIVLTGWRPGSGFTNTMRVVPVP

## O=C(COP(=O)(O)O)[C@@H](O)[C@H](O)[C@H](O)COP(=O)(O)O [FBP, fructose-1,6-bisphosphate]
[1]
  effect on PKM2 tetramer activity: minimal effects
  increase of activity of PKM2 monomers: approximately 70%

## Pervanadate
[2]
  PKM2 subunit stoichiometry in cells after pervanadate: disappearance of PKM2 tetramers
